# Assay results published in US6555545B2, “Adenosine A2A receptor antagonists for treating and preventing hepatic fibrosis, cirrhosis and fatty liver” (New York University, priority 2000, dated 2003).
# Entries after “also recorded” stand apart in the source; their conditions may differ.
# How the values were obtained:
# [1] = test system: HepG2 cells; experiment: Adenosine release from HepG2 cells, quantitated by HPLC; settings: for effect on adenosine release (in words): pharmacologically relevant concentrations, ethanol up to 80 mg/dl
# [2] = test system: rat hepatic stellate cells (rHSC); experiment: Collagen production by immortalized rat hepatic stellate cells (14C-proline pulse, phosphorimager); assay type: cell-based; settings: for collagen production, % of control: n=4; for effect of antagonist on CGS-21680-mediated increase in collagen production (in words): rHSC, CSC 10 micro-M, preincubation four hours
# Method: To determine whether an increase in adenosine release would promote collagen production, immortalized rat hepatic stellate cells (rHSC, gift from Dr. S. L. Friedman) were incubated with agonists and antagonists at various adenosine receptors, after which collagen production was quantitated. Rat hepatic stellate cells were treated with […] at various concentrations with or without the addition of 10 micro-M adenosine A2A receptor antagonist CSC following pulsing with ^14C-proline. The collagen was extracted by ethanol precipitation and quantified following phosphorimager exposure.
# The cAMP/protein kinase A pathway is known to mediate adenosine A2A receptor signal transduction. The effect of protein kinase A inhibition was studied on CGS-21680-mediated collagen production in rHSC. Rat HSC were treated with 10 micromolar CGS-21680 for four hours at 37° C., 5% CO2, with or without the addition of 10 micromolar KT-5720, a protein kinase A inhibitor, and collagen production was extracted by ethanol precipitation and quantified following phosphoimager exposure.
# [3] = test system: human hepatic stellate cells (LX-1); experiment: Collagen production by immortalized human hepatic stellate cells; assay type: cell-based
# Method: Since A2A receptor selectivity of CGS-21680 decreases with increasing concentration, and recruitment of A2B receptor activity is observed with CGS-21680 concentrations above 100 nM, agonistic effects in A2B receptors by high-dose CGS-21680 is likely to be responsible for the decrease in collagen production. This is consistent with Dubey's observations on cardiac fibroblasts that adenosine A2B receptor activation decreases collagen synthesis, Dubey et al., Hypertension 1998; 31(4):943-8. Alternatively, CGS-21680-induced changes in collagen production may be the result of alterations in the expression of collagenase/metalloproteinases (MMP) or their inhibitors, tissue inhibitors of metalloproteinases, TIMP. Adenosine, acting through one of its receptors, most likely the A2B receptor, has been noted to alter metalloproteinase expression (Boyle et al., Arthritis Rheum 1996:39(6):923-30.
structure (smiles),measurement,setting,value
CCO [ethanol],increase in adenosine release from control,"[1]; ethanol 40 mg/dl, three hours",four-fold
same,adenosine release,"[1]; ethanol 40 mg/dl, three hours, n=6, p<0.001 vs control 37±35 nM",206 ± 79 nM
same,toxicity to HepG2 cells,[1]; ethanol concentrations greater than 80 mg/dl,toxic to HepG2 cells
same,effect on adenosine release (in words),[1],increased adenosine release; also recorded: promote adenosine release
same,effect of ethanol on adenosine release from methotrexate-treated HepG2 cells,"[1]; relevant concentrations of methotrexate, data not shown",further increased adenosine release
CCCCCCOC(=O)[C@]1(O)C[C@@H]2O[C@@]1(C)n1c3ccccc3c3c4c(c5c6ccccc6n2c5c31)C(=O)NC4 [KT-5720],"collagen production, % of control","[2]; 10 micromolar CGS-21680 plus 10 micromolar KT-5720, four hours",181±69 % of control
same,suppression of the CGS-21680-mediated increase in collagen production,"[2]; 10 micromolar KT-5720 with 10 micromolar CGS-21680, four hours, n=4, p<0.013",47%
CN(Cc1cnc2nc(N)nc(N)c2n1)c1ccc(C(=O)N[C@@H](CCC(=O)O)C(=O)O)cc1 [methotrexate],increase in adenosine release vs control,"[1]; methotrexate 10 nM, three hours",six-fold
same,adenosine release,"[1]; methotrexate 10 nM, three hours, n=6, p<0.001 vs control 41±39 nM",242 ± 82 nM
same,effect on adenosine release (in words),[1],increased adenosine release; also recorded: promotes adenosine release
"CCCn1c(=O)c2[nH]c(C3CCCC3)nc2n(CCC)c1=O [DPCPX, 8-cyclopentyldipropylxanthine]",effect of antagonist on CGS-21680-mediated increase in collagen production (in words),[2],little effect; also recorded: minimal inhibitory effects
CCCn1c(=O)[nH]c(=O)c2[nH]cnc21 [enprofylline],effect of antagonist on CGS-21680-mediated increase in collagen production (in words),[2],little effect; also recorded: minimal inhibitory effects
CCNC(=O)[C@H]1O[C@@H](n2cnc3c(N)nc(NCCc4ccc(CCC(=O)O)cc4)nc32)[C@H](O)[C@@H]1O [CGS-21680],"collagen production, % of control","[2]; 10 micromolar CGS-21680 alone, four hours",339±99 % of control
same,increase in collagen production over control,"[2]; concentration of 10 mM as printed, n=6, p<0.001",3223±917%
same,EC50,"[2]; cultured rat stellate cell line, dose-dependent, read-out: EC50 for promotion of collagen synthesis and release",~300 nM
same,maximal promotion of collagen synthesis and release,"[2]; cultured rat stellate cell line, p<0.004",≤ 20 fold
same,effect on collagen production (in words),[3]; CGS-21680 concentrations above 100 nM,collagen production by LX-1 decreases
same,effect on collagen production (in words),"[3]; CGS-21680 concentrations up to 100 nM, dose dependent",increased collagen production
"Cn1c(=O)c2c(nc(C=Cc3cccc(Cl)c3)n2C)n(C)c1=O [CSC, 8-(3-chlorostyryl)-caffeine]",effect of antagonist on CGS-21680-mediated increase in collagen production (in words),[2],almost completely blocks; also recorded: almost completely abrogated
same,effect of antagonist on CGS-21680-induced collagen production (in words),[3],blocked by CSC
